What is called IC50 is the concentration at which inhibition is half-maximal.

Read-outs that look alike come from different tables or passages of the source.

The target of experiment [1] is T1, BChE isolated from human plasma (Homo sapiens, UniProt P06276).
T1 construct: BChE isolated from human plasma; from tissue; host or cells: human plasma
The experiment can be described thus: Reversible inhibition of BChE, Ellman method. The class given is biochemical. The following applies: for IC50: 0.1 M phosphate buffer pH 7.4, 25 °C, substrate ATCh, at least three experiments. Here is the method: Inhibition potency of novel compounds was evaluated for recombinant human AChE (prepared as described earlier[25] and kindly donated by Prof Palmer Taylor, Skaggs School of Pharmacy and Pharmaceutical Sciences, University of California at San Diego, La Jolla, USA) and BChE isolated from human plasma (kindly donated by late Dr Douglas Cerasoli and Dr David Lenz, […], Edgewood, MD). The inhibition mixture contained a 0.1 M phosphate buffer, pH 7.4, enzyme, tested compound, and reagent, 5,5'-dithiobis(2-nitrobenzoic acid) (DTNB, 0.3 mM; Sigma Chemical Co., St. Louis, MO, USA). Enzyme activity was measured upon addition of substrate, acetylthiocholine (ATCh, 0.2 or 0.1 mM; Sigma Chemical Co., St. Louis, MO, USA) by the Ellman method[26] at 25 °C and 412 nm, on a Tecan Infinite M200PRO plate reader (Tecan Austria, GmbH, Salzburg, Austria). Due to the low solubility, a stock solution of the tested compounds was prepared in DMSO or methanol (Kemika, Zagreb, Croatia), and a corresponding solvent was in controls as well. The IC50 values were determined from at least three experiments by a nonlinear fit of the compound concentration logarithm values vs. % of enzyme activity using Prism6 software (GraphPad Prism 6 Software, San Diego, USA).
On the technique in general: In Ellman's method for cholinesterases, released thiocholine reacts with DTNB.

A further experiment concerns the target T2, recombinant human AChE (Homo sapiens, UniProt P22303).
T2 construct: made in house
Nature of the experiment: Reversible inhibition of AChE, Ellman method. The class given is biochemical. The following applies: 0.1 M phosphate buffer pH 7.4, 25 °C, substrate ATCh; maximal tested concentration 100 µM for the trans derivatives (DMSO inhibits AChE); read-out: IC50 AChE (IC50 ± SE).

Setting [2] is: read-out: IC50 BChE (IC50 ± SE).

T1 sequence (P06276 29-602): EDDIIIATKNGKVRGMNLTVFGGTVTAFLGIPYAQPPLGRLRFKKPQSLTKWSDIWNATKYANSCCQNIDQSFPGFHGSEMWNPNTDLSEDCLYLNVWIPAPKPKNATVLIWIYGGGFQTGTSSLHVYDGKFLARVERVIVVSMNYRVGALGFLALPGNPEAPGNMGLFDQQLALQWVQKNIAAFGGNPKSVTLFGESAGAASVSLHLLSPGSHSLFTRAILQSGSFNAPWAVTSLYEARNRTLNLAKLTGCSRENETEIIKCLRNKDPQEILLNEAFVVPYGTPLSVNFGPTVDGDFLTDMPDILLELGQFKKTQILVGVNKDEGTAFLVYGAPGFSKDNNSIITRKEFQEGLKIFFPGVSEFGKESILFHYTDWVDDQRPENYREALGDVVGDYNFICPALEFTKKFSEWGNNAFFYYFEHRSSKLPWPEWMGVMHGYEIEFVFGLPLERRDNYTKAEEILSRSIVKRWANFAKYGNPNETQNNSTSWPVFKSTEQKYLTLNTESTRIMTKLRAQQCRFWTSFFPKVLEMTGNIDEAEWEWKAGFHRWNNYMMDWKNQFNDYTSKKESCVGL
T2 sequence (P22303 32-614): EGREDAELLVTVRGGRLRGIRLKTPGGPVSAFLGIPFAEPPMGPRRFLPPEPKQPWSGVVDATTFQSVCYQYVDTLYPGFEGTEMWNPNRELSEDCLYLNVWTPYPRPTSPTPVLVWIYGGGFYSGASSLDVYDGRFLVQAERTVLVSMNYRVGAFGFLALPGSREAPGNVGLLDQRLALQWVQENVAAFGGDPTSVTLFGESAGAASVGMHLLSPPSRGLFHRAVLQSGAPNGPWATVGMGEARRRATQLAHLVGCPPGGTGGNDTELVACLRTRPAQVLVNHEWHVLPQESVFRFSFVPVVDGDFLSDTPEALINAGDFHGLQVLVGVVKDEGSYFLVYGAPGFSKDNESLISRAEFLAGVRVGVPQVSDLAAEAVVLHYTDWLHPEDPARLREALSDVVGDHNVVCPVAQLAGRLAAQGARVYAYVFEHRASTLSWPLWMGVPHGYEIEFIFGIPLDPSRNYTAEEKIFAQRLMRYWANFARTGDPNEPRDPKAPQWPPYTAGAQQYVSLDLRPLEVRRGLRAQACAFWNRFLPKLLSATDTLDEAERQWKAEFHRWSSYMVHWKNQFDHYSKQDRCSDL

Consider `Fc1ccc(CNc2ccc3ccc4ocnc4c3c2)cc1` [Compound 20, N-(4-fluorobenzyl)naphtho[1,2-d]oxazol-8-amine], for which the IC50 in experiment [1] (setting [2]) is 12 ± 1.3 µM; on recombinant human AChE it was 45 ± 17 µM. Further, the “fold higher potency for BChE than counterpart trans-6” value in experiment [1] (ratio of IC50 vs trans-6) is on record as “about 8 fold”.

In the case of `Nc1ccc2ccc3ocnc3c2c1` [Compound 23, Naphtho[1,2-d]oxazol-8-amine], the IC50 stood at 1000 ± 650 µM in experiment [1] (setting [2]) and 120 ± 46 µM at recombinant human AChE.

In the case of `Fc1cccc(CNc2ccc(/C=C/c3cnco3)cc2)c1` [trans-10, (E)-N-(3-fluorobenzyl)-4–(2-(oxazol-5-yl)vinyl)aniline], the IC50 in experiment [1] (setting [2]) was 32 ± 5.2 µM; at recombinant human AChE it was over 100 µM.

Turning to `Nc1ccc(/C=C\c2cnco2)cc1` [cis-22, (Z)-4–(2-(oxazol-5-yl)vinyl)aniline], the IC50 in experiment [1] (setting [2]) was 110 ± 58 µM; at recombinant human AChE, 190 ± 100 µM.

With `Fc1ccc(CNc2ccc(/C=C/c3cnco3)cc2)cc1` [trans-6, (E)-N-(4-fluorobenzyl)-4–(2-(oxazol-5-yl)vinyl)aniline], the IC50 was 80 ± 10 µM in experiment [1] (setting [2]) and over 100 µM on recombinant human AChE.

With `COc1cccc(CNc2ccc(/C=C/c3cnco3)cc2)c1` [trans-8, (E)-N-(3-methoxybenzyl)-4–(2-(oksazol-5-yl)vinyl)aniline], the results for the IC50 (in experiment [1] (setting [2]); at recombinant human AChE) were 36 ± 4.4 µM and over 100 µM, respectively.

Turning to `C(=C\c1cnco1)/c1ccc(NCc2ccccc2)cc1` [trans-2, (E)-N-benzyl-4–(2-(oxazol-5-yl)vinyl)aniline], the IC50 in experiment [1] (setting [2]) is 120 ± 22 µM; at recombinant human AChE, over 100 µM.

Turning to `c1ccc(CNc2ccc3ccc4ocnc4c3c2)cc1` [Compound 19, N-benzylnaphtho[1,2-d]oxazol-8-amine], the IC50 came out at 140 ± 24 µM in experiment [1] (setting [2]) and 68 ± 25 µM at recombinant human AChE.

In the case of `Cc1ccccc1CNc1ccc(/C=C/c2cnco2)cc1` [trans-11, (E)-N-(2-methylbenzyl)-4–(2-(oxazol-5-yl)vinyl)aniline], the IC50 in experiment [1] (setting [2]) was 160 ± 35 µM; at recombinant human AChE, over 100 µM. Moreover, the “fold lower BChE binding affinity than the most potent inhibitor trans-12” value in experiment [1] (ratio of IC50 vs trans-12) stood at 5.5 fold.

Take `Cc1cccc(CNc2ccc(/C=C/c3cnco3)cc2)c1` [trans-7, (E)-N-(3-methylbenzyl)-4–(2-(oxazol-5-yl)vinyl)aniline]: the values for the IC50 (in experiment [1] (setting [2]); on recombinant human AChE) were 130 ± 26 µM and over 100 µM, respectively.

Turning to `CCN(CC)C(C)CN1c2ccccc2Sc2ccccc21` (centres unmarked) [Ethopropazine, reference compound], in experiment [1] (IC50 BChE (IC50 ± SE)), the IC50 was 0.046 ± 0.0037 µM.

In the case of `C(=C/c1cnco1)/c1ccc(NCc2cccs2)cc1` [cis-18, (Z)-4–(2-(oxazol-5-yl)vinyl)-N-(thiophen-2-ylmethyl)aniline], the IC50 in experiment [1] (setting [2]) was 5.7 ± 0.8 µM; on recombinant human AChE, 160 ± 100 µM. For the same molecule, the “times more potent inhibitor of BChE than trans-12, trans-10 and trans-8” value in experiment [1] (ratio of IC50 vs trans-12, trans-10, trans-8) is “about 5 times”.

As to `COc1ccccc1CNc1ccc(/C=C/c2cnco2)cc1` [trans-12, (E)-N-(2-methoxybenzyl)-4–(2-(oxazol-5-yl)vinyl)aniline], the IC50 was 28 ± 5.2 µM in experiment [1] (setting [2]) and over 100 µM at recombinant human AChE.

Consider `Cc1ccc(CNc2ccc(/C=C/c3cnco3)cc2)cc1` [trans-3, (E)-N-(4-methylbenzyl)-4–(2-(oxazol-5-yl)vinyl)aniline], for which the IC50 in experiment [1] (setting [2]) was 120 ± 19 µM; on recombinant human AChE, over 100 µM.

As to `c1csc(CNc2ccc3ccc4ocnc4c3c2)c1` [Compound 21, N-(thiophen-2-ylmethyl)naphtho[1,2-d]oxazol-8-amine], the IC50 in experiment [1] (setting [2]) came to 35 ± 7.1 µM; on recombinant human AChE, 51 ± 20 µM.

Turning to `Clc1ccc(CNc2ccc(/C=C/c3cnco3)cc2)cc1` [trans-5, (E)-N-(4-chlorobenzyl)-4–(2-(oxazol-5-yl)vinyl)aniline], the IC50 in experiment [1] (setting [2]) was 87 ± 12 µM; on recombinant human AChE, over 100 µM.

Take `C(=C\c1cnco1)/c1ccc(NCc2ccco2)cc1` [trans-17, (E)-N-(furan-2-ylmethyl)-4–(2-(oxazol-5-yl)vinyl)aniline]: the IC50 is 65 ± 10 µM in experiment [1] (setting [2]) and over 100 µM at recombinant human AChE.

Consider `COc1ccc(CNc2ccc(/C=C/c3cnco3)cc2)cc1` [trans-4, (E)-N-(4-methoxybenzyl)-4–(2-(oxazol-5-yl)vinyl)aniline], for which the IC50 in experiment [1] (setting [2]) is 110 ± 15 µM; at recombinant human AChE, over 100 µM.
